Our source for the Kd values is paper PMC9119131, “Fragile protein folds: sequence and environmental factors affecting the equilibrium of two interconverting, stably folded protein conformations” (Magnetic resonance, 2021).

Assay [1] has as its target T1, ARNT PAS-B (aryl hydrocarbon receptor nuclear translocator) (Homo sapiens, UniProt P27540, Y456T).
T1 construct: PAS-B domain, residues 356–470 (with N-terminal GAMD cloning artifact)
Description: […]/1H HSQC NMR titration ([…]/1H HSQC titration also gave Kd […]). Type of assay: binding.

Assay [2] has as its target T1, ARNT PAS-B (aryl hydrocarbon receptor nuclear translocator). Description: […]/1H HSQC NMR titration (L391 δ[…] methyl). Format: binding.

T1 sequence (P27540 356-470 Y456T): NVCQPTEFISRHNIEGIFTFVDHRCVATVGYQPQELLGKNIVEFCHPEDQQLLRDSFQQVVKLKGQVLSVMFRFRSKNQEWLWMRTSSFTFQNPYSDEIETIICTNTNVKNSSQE

In assay [1], `FC(F)(F)c1cc(-c2nn[nH]n2)cc(C(F)(F)F)c1` [KG-548, 5-(3,5-bis(trifluoromethyl)phenyl)tetrazole] displayed a dissociation constant (Kd) of 684 ± 33.1 µM. Take `Oc1cc(C(F)(F)F)cc(C(F)(F)F)c1` [KG-655, 3,5-bis(trifluoromethyl)phenol]: the dissociation constant Kd in assay [2] was 1950 ± 152 µM.

Usually Kd stands for the equilibrium constant for the complex coming apart.
